Measurements published in patent US10383960B2, “Small molecule imaging of fungi by positron emission tomography scanning” (The United States of America, as represented by the …, priority 2013, dated 2019).

System: Aspergillus
Description: Compounds such as calcofluor can be used for visualizing a broad range of medically relevant fungi under the microscope, due to their specific nature of binding, high level fluorescence (detectable under the microscope) and low binding to patient tissue. Calcofluor is a fairly non-toxic compound that is used to dye clothes, due to its high affinity for cellulose-containing cotton fibers. It has also been used to follow ground water migration due to its fluorescent properties and low toxicity.

With `O=S(=O)([O-])c1cc(Nc2nc(Nc3ccccc3)nc(N(CCO)CCO)n2)ccc1C=Cc1ccc(Nc2nc(Nc3ccccc3)nc(N(CCO)CCO)n2)cc1S(=O)(=O)[O-].[Na+].[Na+]` [calcofluor] the “recovery of injected compound in lung tissue” value (in vivo) was “could be recovered in harvested lung tissue” and the “fluorescent staining of fungal hyphae in lung tissue” value (microscope, lung tissue removed from subject infected with Aspergillus) was “demonstrated fluorescent fungal hyphal forms under the microscope”.
